In patent US20080206364A1, “Topical nitric oxide as a treatment of autoimmune diseases” (Nitric Biotherapeutics, Inc., priority 2006, published 2008):
Entries after “also recorded” stand apart in the source; their conditions may differ.

Tests used:
[1] = test system: full thickness infected wound; assay: Histology of full thickness infected wound punch biopsies, gNO-treated vs control animals; assay type: in vivo; details: for toxic effects (cellular debris) in wound tissue: in vivo exposure, 200 ppm gNO, open wound animal model
Method: FIG. 5 illustrates histology analysis of full thickness infected wound exposed to 200 ppm gNO for 24 hours.
FIG. 5 presents histological analysis of tissue blocks prepared on wound punch biopsies from animals in NO-treated and control groups. Samples from the control group show more advanced neutrophil infiltration and so a higher degree of inflammatory reaction. […] Overall, a healthier healing process is observed in the wounds treated with gNO.

collagenase mRNA = assay: mRNA expression for collagenase following exposure to gNO; assay type: cell-based; details: 200 ppm gNO, 24 and 48 hours, with increasing exposure time
From the text: Witte M B, et al, (2002) Nitric oxide enhances […] wound healing in diabetes, Br J Surg., 89:1594-601. Thus, Applicants believe that NO may upregulate expression of both collagenase (MMP-1) and gelatinase (MMP-2), which may be important in keeping the wound clean from necrotic tissue while not prolonging the inflammatory phase.

collagen mRNA = assay: mRNA expression for collagen following exposure to NO; assay type: cell-based
From the text: Rather than applying exogenous collagenase for enzymatic debridement of necrotic tissue, exposing a wound with necrotic tissue to exogenous NO gas to upregulate endogenous collagenase may be more beneficial. When endogenous collagenase is released by the cell, it automatically releases TIMP's (tissue inhibitor of metalloproteinase). This ensures that the matrix degradation is coordinated and allows the establishment of sharp geographical boundaries of collagenolytic activity and the protection of areas of connective tissue from the activity of the enzyme. In contrast, use of exogenous collagenase material to debride a wound confers no protection to specific areas of the wound as it is active on every cell that comes in contact with it whether or not the effect is desired.
Preferably, after the exposure of the wound to high concentration of nitric oxide gas for a first treatment period (e.g., 5-8 hours per day), the necrotic tissue may be mechanically removed easily and the concentration of nitric oxide gas can be decreased for a second treatment period. The low concentration of nitric oxide gas (e.g., at 5-20 ppm) delivered for the second treatment period may upregulate the expression of collagen mRNA leading to synthesis of new collagen to aid in the closure of the wound. […] The second treatment period may be for a period 7-16 hours per day. […]

human fibroblast cells = assay: Fibroblast viability study in gNO incubation chamber (morphology, cell count, proliferation); assay type: cell-based
Method: Fibroblast cells obtained from adult patients undergoing elective reconstructive surgery were cultured in Dulbeco's Modified Eagle's Medium (DMEM), supplemented with 10% fetal bovine serum (FBS) and antibiotic-antimycotic preparation and divided into ten 25 cm^2 vented culture flasks (COSTAR). Four of these flasks (treated group) were exposed to 20 or 200 ppm humidified gNO inside a specialized NO incubation chamber at 37° C. for 24 and 48 hours. The NO exposure chamber was validated prior to the study to eliminate extraneous variables and ensure optimal conditions for fibroblast cell growth. Another four flasks (control group) were placed inside conventional culture incubator and exposed only to ambient humidified air at 37° C. Two flasks were separately harvested and counted as the number of cells at zero time. Following the treatment, fibroblast cells were harvested and evaluated for morphology, cell count, capacity to proliferate and medium pH.
Cells under gNO appeared healthy and attached to the culture plates.

human fibroblasts = assay: Cell attachment capacity of human fibroblasts; assay type: cell-based; details: 160 ppm gNO, within 1 hour of culturing; control group the same
Method: FIG. 9 illustrates cell attachment capacity of human fibroblasts following exposure to 160 ppm of gNO.
Capability of cells to reattach to the culture plates within a specified time limit is commonly used as an indication of viability of cells in culture. Both the control and treated groups show a 70% attachment capacity within 1 hour of culturing.

[2] = test system: fibroblasts grown in a 3D matrix; assay: Migration and proliferation of fibroblasts grown in a 3D matrix; assay type: cell-based; details: 200 ppm NO, 8 hours per day for 3 days, vs air or conventional incubator
human endothelial cells = assay: Tube formation in human endothelial cells grown in matrigel; assay type: cell-based; details: 200 ppm NO, 8 hours or 24 hours
Method: Left panels at 8 hours of exposure. Right panels at 24 hours of exposure.

[3] = test system: leg ulcer induced by an autoimmune disorder; assay: Autoimmune wound patient: leg ulcer in antiphospholipid antibody syndrome, topical nitric oxide gas; assay type: in vivo, human
From the text: A patient was diagnosed with antiphospholipid antibody syndrome. Antiphospholipid antibody syndrome is an autoimmune disorder that mainly affects people under the age of 40. The disease causes the blood in the body to clot and is associated with a type of antibody that attacks blood platelets. Strokes, deep vein thrombosis (DVT), heart attacks, and pulmonary emboli are some of the manifestations of the disease. As a result of this syndrome, the patient had two DVT's and one pulmonary embolism.
Following repetitive injury to the deep venous system, the patient developed three areas of ulceration and secondary skin breakdown on the left shin area of the leg. The wound was colonized with a variety of organisms and at times had been clinically infected. The patient had been treated with numerous types of oral and IV antibiotics over several years. Many different types of dressings had been used to control the bacteria, including silver dressings, all without success.
The three small ulcers continued to grow in size and then joined together to create one large ulcer (FIG. 15A). Skin grafts on two occasions deteriorated and sloughed due to repetitive infections and high bacterial burden, even with the use of hyperbaric oxygen treatment.
With the inability to control the bacterial burden, amputation was planned. As a rescue trial, topical nitric oxide gas was applied for eight hours per night.
The nitric oxide therapy was then changed to be used for 12 hours per night, using 200 ppm gNO.

psoriatic lesions = assay: Psoriasis study, one volunteer, NO delivered to right foot in plastic boot; assay type: in vivo, human; details: 300 ppm
Method: Experiments were conducted using one volunteer who suffers from psoriasis. The subject had psoriasis on their arms, legs and feet, all of which is itchy and painful. At the time of the study, the volunteer was using a medicated cream called DOVOBET on the arms and legs. The subject stopped using the medicated cream on the legs and feet prior to the NO treatments described herein.
Treatments were administered to the subject's right foot, as it appeared to have been affected the most by psoriasis. […] Around the ankle were small red blotches that spread all of the way up the leg. The small blotches were slightly raised and appeared to be inflamed.
The subject's foot was placed into a large plastic boot, which was lightly secured with VELCRO straps halfway up the calf. A tube coming out of the top of the plastic boot was unaltered, and the second tube was sealed off using a plastic clamp. A NO line capable of delivering NO at 300 ppm, 250 cc per minute, was screwed into the bottom tubing closest to the ankle using a plastic screw. A pin was used to pick several holes in the bottom of the plastic boot to allow the NO to flow through the boot. NO was then administered to the boot, and therefore, the psoriatic lesions, at 300 ppm for 180 minutes per day over six consecutive days.

[4] = gNO less than 200 ppm continuously for 48 hours
[5] = 200 ppm gNO, 12 hours per night, another eight weeks
[6] = after second treatment (day two)
[7] = after third treatment (day three)

[N]=O [NO, nitric oxide] was tested, and the “neutrophil concentration (inflammatory reaction) in wounds” value ([1]; 200 ppm gNO for 24 hours, vs control group) was “lower level of neutrophil concentration”, the “wound closure / healing process (histology)” value ([1]; 200 ppm gNO for 24 hours, vs control wounds) was “layer of granular tissue closing on the wound” and the “toxic effects (cellular debris) in wound tissue” value ([1]; listed as gNO) was “No toxic effects”. The “toxic effects (cellular debris) in wound tissue” value ([1]; listed as nitric oxide gas) was “no toxicity”, the “expression of collagenase mRNA” value (collagenase mRNA) was “increased” and the “collagen mRNA expression” value (collagen mRNA; fibroblasts exposed to 5 ppm of NO) was “increased collagen mRNA expression”. For the same compound, the collagen expression (collagen mRNA; high concentration (200 ppm) of exogenous nitric oxide, FIG. 6 left panel) was “possible inhibition of collagen expression”, the fibroblast cell proliferation (human fibroblast cells; 200 ppm NO, vs control) was “increasing proliferation; also recorded: increase in fibroblast cell proliferation” and the “harmful effects on the fibroblast (morphology, cell count, capacity to proliferate, medium pH)” value (human fibroblast cells; around 200 ppm gNO, 24 and 48 hours, 37° C.) was “did not have harmful effects”. For the same compound, the “morphological appearance and attachment capacity of treated vs control dermal fibroblasts” value (human fibroblast cells; [4]) was “quite comparable”, the “toxic effect due to exposure” value (human fibroblast cells; [4]) was “No toxic effect” and the attachment capacity (human fibroblasts) was 70%. For the same compound, the migration of fibroblasts [2] was “does not appear to affect”, the “proliferation of fibroblasts in 3D matrix” value [2] was “does not appear to interfere with the proliferation” and the “tube formation vs air” value (human endothelial cells) was “no significant difference”. The “clinical outcome (planned amputation)” value [3, 5] was “amputation was avoided”, the “wound covered by beefy red granulation tissue” value [3, 5] was roughly 75% and the wound appearance ([3]; topical, eight hours per night, within six weeks) was “less yellow slough in the wound bed, the wound edges appeared less raised, and more granulation buds were present”. For the same compound, the “appearance of the psoriasis” value (psoriatic lesions; 180 min, after first treatment (day one)) was “no change”, the “white scales on the ankle” value (psoriatic lesions; 180 min, after the first day) was “disappeared” and the “discolored (dark) patch of skin on inner calf” value (psoriatic lesions; 180 min per day, after day two) was “almost gone”. The “physical results (psoriatic condition)” value (psoriatic lesions; after fourth, fifth and sixth treatments (days 4, 5 and 6)) was “remain the same”, the “inflammation around the ankle” value (psoriatic lesions; [6]) was “diminished slightly” and the “small red blotches around the ankle and up the leg” value (psoriatic lesions; [6]) was “the same as prior to the treatment”. The “inflammation around the ankle” value (psoriatic lesions; [7]) was “decreased considerably”, the “psoriatic lesion around the ankle (area)” value (psoriatic lesions; [7]) was “smaller in area” and the “small red blotches around the ankle and up the leg” value (psoriatic lesions; [7]) was “appeared the same”.
